Measurements published in publication PMC6027146, “Synthesis and Structure-Activity Relationships of (−)-cis-N-Normetazocine-Based LP1 Derivatives” (Pharmaceuticals, 2018).
“Also recorded” adds a separate entry of the source. Read-outs that look alike come from different tables or passages of the source.

Assays:
[1] = biological target: T1, rat-MOR (Rattus norvegicus, UniProt P33535); assay: Radioligand competition binding, [3H]-DPN, HEK293 membranes, MOR
T1 construct: expressed in transfected cells
Experimental: (§1) All synthesized compounds were tested in vitro by radioligand competition binding using [^3H]-diprenorphine ([^3H]-DPN) to measure the affinity for opioid receptor subtypes in membranes from HEK293 cells stably expressing either MOR, DOR, or KOR, as previously described.
(§2) Confluent monolayers of HEK293 (human embryonic kidney 293) cells stably expressing rat-MOR, rat-DOR, or human-KOR were harvested, collected by centrifugation at 1500 rpm for 5 min, and washed once with phosphate-buffered saline (PBS) at pH 7.5. Membranes from cell pellets were carried out as described by Georgoussi and Zioudrou (1993) and Papakonstantinou et al. (2015). Briefly, cell pellets were resuspended in ice-cold membrane buffer (10 mM Tris-HCl, pH 7.5 and 0.1 mM EDTA), homogenized, and centrifuged at 2,000 g for 3 min at 4 °C. Supernatants were further centrifuged at 45,000 rpm for 30 min at 4 °C. The membrane pellet was resuspended in ice-cold membrane buffer at a protein concentration of approximately 1 mg/mL and stored in aliquots at −70 °C. Protein concentration was determined according to Bradford assay.
(§3) In the experiments designed to define compound affinity and selectivity for MOR, DOR, and KOR, membranes expressing each of these opioid receptors ([…]) were incubated at 30 °C for 45 min in buffer containing 50 mM Tris-HCl, pH 7.5, 100 mM NaCl, and 10 mM MgCl2 as described by Georgoussi et al. […] The ability of compounds 10–16 to displace [^3H]-DPN (3.75 nM) binding to the opioid receptors was assessed as described by Morou And Georgoussi (2005). Non-specific binding was measured in the presence of […] Naloxone. The reaction was stopped by rapid filtration and three washes in ice-cold 50 mM Tris-HCl, pH 7.4, through GF/C filters (Whatman, Maidstone, UK) using an automated cell harvester (Brandel Inc., Gaithersburg, MD, USA). The radioactivity was measured by liquid scintillation counting (Liquid Scintillation Analyzer, Packard).
(§4) Analysis of the binding data was performed using the Origin 7.5 software (OriginLab Corporation, Northampton, MA, USA). In calcium mobilization experiments, data were analyzed by non-linear curve fitting equation, using GraphPad 5.0 software. […] Ligand efficacy was expressed as intrinsic activity (α), calculated as the ratio between the Emax of the ligand and that of the respective standards. Calcium mobilization data were expressed as FIU (fluorescence intensity units) in percent, over the baseline. Agonist potencies are given as pEC50 (the negative logarithm to base 10 of the molar concentration of an agonist that produces 50% of the maximal possible effect, Emax). Concentration response curves to agonists were fitted with the following equation: Effect = baseline + (Emax − baseline)/(1+10^(LogEC50 − X) ∗ HillSlope) where X is the agonist concentration.

[2] = biological target: T2, rat-DOR (Rattus norvegicus, UniProt P33533); assay: Radioligand competition binding, [3H]-DPN, HEK293 membranes, DOR
T2 construct: expressed in transfected cells
Experimental: as §1, §2, §3, §4

[3] = biological target: T3, recombinant human MOR (Homo sapiens, UniProt P35372); assay: Calcium mobilization assay, CHO-MOR cells expressing Gαqi5; type: cell-based; details: for functional profile at MOR: calcium mobilization; for intrinsic activity (α) at MOR: ratio of Emax of ligand to that of the standard; for MOR pEC50 (CL95%): agonist mode, Inactive = inactive at 10 μM, crc incomplete = incomplete concentration response curve at 10 μM
T3 construct: expressed in transfected cells; gift of Dr. Larry Toll (SRI International); infected with a retrovirus for Gαqi5

[4] = biological target: T4, recombinant human DOR (Homo sapiens, UniProt P41143); assay: Calcium mobilization assay, CHO-DOR cells expressing GαqG66Di5; type: cell-based; details: for DOR pEC50 (CL95%): agonist mode, crc incomplete = incomplete concentration response curve at 10 μM; for DOR pEC50 (CL95%) / DOR pKB (CL95%): Inactive = inactive at 10 μM; for DOR pKB (CL95%): antagonist mode, DPDPE as agonist; for functional profile at DOR: calcium mobilization
T4 construct: expressed in transfected cells; supplied by Dr. Eva Varga (University of Arizona); infected with a retrovirus for GαqG66Di5
Experimental: (§5) The pharmacological characterization of LP1 derivatives 2 and 10–16 was performed by calcium mobilization assay (Table 2). This procedure was preliminarily validated through a series of experiments where the effects of DPDPE, dermorphin, and dynorphin A were assessed in CHO cells expressing the human recombinant opioid receptors and Gαqi5 or GαqG66Di5 chimeric proteins.
(§6) Chinese hamster ovary (CHO) cells expressing the recombinant human MOR and KOR (CHO^MOR and CHO^KOR) were kindly provided by Dr. Larry Toll (SRI International, Menlo Park, CA, USA), and CHO cells expressing the recombinant human DOR (CHO^DOR) were supplied by Dr. Eva Varga (Department of Medical Pharmacology, The University of Arizona, Tucson, AZ, USA). CHO cells lines permanently coexpressing the opioid receptors and the C-terminally modified Gαqi5 were prepared by infecting the CHO lines described above with a recombinant retrovirus expressing the chimeric α subunit and the hygromycin resistance gene. Similarly, CHO cells lines permanently coexpressing DOR and the C-terminally modified GαqG66Di5 were prepared by infecting the CHO lines described above with a recombinant retrovirus expressing the chimeric α subunit and the hygromycin resistance gene. Polyclonal cell lines were generated using the pantropic retroviral expression system form BD-Clontech, as described previously. Stable lines were selected under hygromycin B (100 μg/mL) and geneticin (600 μg/mL) for 2–3 weeks after the infection.
(§7) CHO cells, expressing human opioid receptors and the Gαqi5 protein, and CHODOR, expressing the GαqG66Di5 protein, were maintained in culture medium consisting of Dulbecco minimum essential medium (DMEM) and Ham F-12 (1:1) (50/50) supplemented with 10% fetal calf serum (FCS), L-glutamine (2 mM), geneticin (200 μg/mL; G418), hygromycin B (100 μg/mL) at 37 °C in 5% CO2 humidified air. When confluence was reached (3–4 days), cells were subcultured as required using trypsin/EDTA, and used for experimentation. The different cell lines were seeded at a density of […] into black 96-well, clear-bottomed plates. After 24 h incubation, the cells were loaded with medium supplemented with 2.5 mM probenecid, 3 μM of the calcium sensitive fluorescent dye Fluo-4 AM, and 0.01% pluronic acid, for 30 min at 37 °C. Afterwards, the loading solution was aspirated and 100 μL/well of assay buffer—HBSS supplemented with 20 mM HEPES, 2.5 mM probenecid and 500 μM Brilliant Black (Aldrich, St. Louis, MO, USA)—was added. Serial dilutions of ligands for experimental use were made in HBSS/HEPES (20 mM) buffer (containing 0.005% BSA fraction V). After placing both plates (cell culture and compound plate) into the FlexStation II (Molecular Device, Union City, San Jose, CA 94587, USA), fluorescence changes were measured at room temperature. Online additions were carried out in a volume of 50 μL/well. Antagonists were incubated 15 min before the addition of the agonist. Maximum change in fluorescence, expressed in percent of baseline fluorescence, was used to determine agonist response.
as §4, with “concentration. […]” for “concentration.”

[5] = biological target: T5, human-KOR (Homo sapiens, UniProt P41145); assay: Radioligand competition binding, [3H]-DPN, HEK293 membranes, KOR; set-up: expressed in transfected cells
Experimental: as §1, §2, §3, §4

[6] = biological target: T5, human-KOR; assay: Calcium mobilization assay, CHO-KOR cells expressing Gαqi5; type: cell-based; set-up: expressed in transfected cells; gift of Dr. Larry Toll (SRI International); infected with a retrovirus for Gαqi5; details: for KOR pEC50 (CL95%): agonist mode, crc incomplete = incomplete concentration response curve at 10 μM; for KOR pEC50 (CL95%) / KOR pKB (CL95%): Inactive = inactive at 10 μM; for KOR pKB (CL95%): antagonist mode, dynorphin A as agonist; for functional profile at KOR: calcium mobilization
Experimental: as §5, §6, §7
as §4, with “concentration. […]” for “concentration.”

Compound | Ki [1] | Ki [2] | EC50 [3] | functional profile at MOR [3] | intrinsic activity (α) at MOR [3] | DOR pEC50 (CL95%) [4] | DOR pKB (CL95%) [4] | Ki [5] | KOR pEC50 (CL95%) [6] | Kb [4] | functional profile at DOR [4] | Kb [6] | KOR pKB (CL95%) [6] | functional profile at KOR [6] | Kb [3] | MOR pEC50 (CL95%) [3] | melting point | other results
C[C@H]1[C@H]2Cc3ccc(O)cc3[C@]1(C)CCN2CCC(=O)Nc1ccc(F)cc1 [Compound 10, N-(4-Fluorophenyl)-3-[(2R,6R,11R)-8-hydroxy-6,11-dimethyl-1,4,5,6-tetrahydro-2,6-methano-3-benzazocin-3(2H)-yl]propanamide] | 0.28 ± 0.013 µM | 920 ± 120 nM | 2140 nM | MOR partial agonists | 0.30 ± 0.015 | able to stimulate calcium mobilization, but only at the higher concentration tested; also recorded: crc incomplete | Inactive | 4.8 ± 0.95 µM | crc incomplete | – | – | – | – | – | – | – | – | –
Cc1ccc(NC(=O)CCN2CC[C@@]3(C)c4cc(O)ccc4C[C@@H]2[C@@H]3C)cc1 [Compound 11, 3-[(2R,6R,11R)-8-Hydroxy-6,11-dimethyl-1,4,5,6-tetrahydro-2,6-methano-3-benzazocin-3(2H)-yl]-N-(4-methylphenyl)propanamide] | 0.24 ± 0.015 µM | 410 ± 23 nM | 1410 nM | MOR partial agonists | 0.23 ± 0.011 | Inactive | – | 1.01 ± 0.11 µM | Inactive | 1480 nM | DOR/KOR antagonists | 1410 nM | able to inhibit the stimulatory effects induced by dynorphin A | DOR/KOR antagonists | – | – | – | –
C[C@H]1[C@H]2Cc3ccc(O)cc3[C@]1(C)CCN2CCC(=O)Nc1ccc(C#N)cc1 [Compound 12, N-(4-Cyanophenyl)-3-[(2R,6R,11R)-8-hydroxy-6,11-dimethyl-1,4,5,6-tetrahydro-2,6-methano-3-benzazocin-3(2H)-yl]propanamide] | 0.21 ± 0.024 µM | 380 ± 34 nM | 1020 nM | MOR partial agonists | 0.34 ± 0.017 | Inactive | – | 0.85 ± 0.18 µM | Inactive | 1510 nM | DOR/KOR antagonists | 1260 nM | able to inhibit the stimulatory effects induced by dynorphin A | DOR/KOR antagonists | – | – | – | –
COc1ccc(NC(=O)CCN2CC[C@@]3(C)c4cc(O)ccc4C[C@@H]2[C@@H]3C)cc1 [Compound 13, 3-[(2R,6R,11R)-8-Hydroxy-6,11-dimethyl-1,4,5,6-tetrahydro-2,6-methano-3-benzazocin-3(2H)-yl]-N-(4-methoxyphenyl)propanamide] | 0.18 ± 0.011 µM | 1100 ± 110 nM | – | – | – | Inactive | Inactive | 4 ± 0.18 µM | Inactive | – | – | – | Inactive | – | 501 nM | Inactive | 172.9 to 173.5 °C | –
C[C@H]1[C@H]2Cc3ccc(O)cc3[C@]1(C)CCN2CCC(=O)N1CCCc2ccccc21 [Compound 15, 1-(3,4-Dihydroquinolin-1(2H)-yl)-3-[(2R,6R,11R)-8-hydroxy-6,11-dimethyl-1,4,5,6-tetrahydro-2,6-methano-3-benzazocin-3(2H)-yl]-propan-1-one] | – | – | – | – | – | Inactive | Inactive | – | – | – | – | – | – | partial agonist of KOR | – | Inactive | 92.2 °C (dec.) | Ki ([1]; [3H]-DPN displacement, means ± SEM of three experiments in duplicate, read-out: Ki (μM) ± SEM MOR): 0.36 ± 0.023 µM; Ki ([5]; [3H]-DPN displacement, means ± SEM of three experiments in duplicate, read-out: Ki (μM) ± SEM KOR): 0.2 ± 0.02 µM; intrinsic activity (α) at KOR ([6]; ratio of Emax of ligand to that of the standard): 0.32 ± 0.016; EC50 ([6]; read-out: KOR pEC50 (CL95%) (converted)): 257 nM
C[C@H]1[C@H]2Cc3ccc(O)cc3[C@]1(C)CCN2CCC(=O)N(c1ccccc1)c1ccccc1 [Compound 16, 3-[(2R,6R,11R)-8-Hydroxy-6,11-dimethyl-1,4,5,6-tetrahydro-2,6-methano-3-benzazocin-3(2H)-yl]-N,N-diphenylpropanamide] | 0.17 ± 0.013 µM | – | – | MOR/KOR antagonist | – | Inactive | Inactive | 0.2 ± 0.03 µM | Inactive | – | – | 776 nM | able to inhibit the stimulatory effects induced by dynorphin A | MOR/KOR antagonist | 759 nM | Inactive | 173.5 °C (dec.) | –
